Test results reported in PubChem BioAssay (NCI).
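96-well plates; 48 h exposure; 5 concentrations. Endpoints by linear interpolation between flanking doses. Not reached: highest tested concentration assigned. Definition used: TGI = concentration required for complete inhibition of growth.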

Columns and labels:
Assay in all cases: NCI anticancer screen, dose series, 48 h
[1] = tested on: OVCAR-8 ovarian
[2] = tested on: HT29 colon
[3] = tested on: EKVX NSCLC
[4] = tested on: SNB-19 CNS
[5] = tested on: SN12C renal
[6] = tested on: CCRF-CEM leukemia
[7] = tested on: HS 578T breast
[8] = tested on: MDA-MB-435
[9] = tested on: SK-MEL-2 melanoma
[10] = tested on: SK-OV-3 ovarian
[11] = tested on: SW-620 colon
[12] = tested on: NCI-H522 lung
[13] = tested on: M14 melanoma
[14] = tested on: OVCAR-5 ovarian
[15] = tested on: NCI-H226 lung
[16] = tested on: HOP-62 NSCLC
[17] = tested on: A498 renal
[18] = tested on: NCI-H460 lung
[19] = tested on: SK-MEL-5 melanoma
[20] = tested on: MDA-N
[21] = tested on: OVCAR-3 ovarian
[22] = tested on: UACC-62 melanoma
[23] = tested on: BT-549 breast
[24] = tested on: NCI/ADR-RES ovarian
[25] = tested on: COLO 205 colon
[26] = tested on: A549 NSCLC
[27] = tested on: RXF 393 renal
[28] = tested on: UO-31 renal
[29] = tested on: MOLT-4 leukemia
[30] = tested on: MDA-MB-231 breast
[31] = tested on: SF-268 CNS
[32] = tested on: SF-295 CNS
[33] = tested on: NCI-H23 lung
[34] = tested on: LOX IMVI melanoma
[35] = tested on: T-47D breast
[36] = tested on: RPMI-8226 leukemia
[37] = tested on: HCT-15 colon
[38] = tested on: SR leukemia
[39] = tested on: SF-539 CNS
[40] = tested on: U251 CNS
[41] = tested on: SNB-75 CNS
[42] = tested on: ACHN renal
[43] = tested on: OVCAR-4 ovarian
[44] = tested on: DU-145 prostate
[45] = tested on: CAKI-1 renal
[46] = tested on: HL-60(TB) leukemia
[47] = tested on: SK-MEL-28 melanoma
[48] = tested on: HCT-116 colon
[49] = tested on: PC-3 prostate
[50] = tested on: 786-0 renal
[51] = tested on: IGROV1 ovarian
[52] = tested on: K-562 leukemia
[53] = tested on: UACC-257 melanoma
[54] = tested on: HCC-2998 colon
[55] = tested on: KM12 colon
[56] = tested on: MCF7 breast
[57] = tested on: MALME-3M melanoma
[58] = tested on: HOP-92 NSCLC
[59] = tested on: TK-10 renal

NC(=O)c1nnsc1N/N=C/c1ccc([N+](=O)[O-])cc1
TGI [1]: > 100 µM | TGI [2]: > 100 µM | TGI [3]: > 100 µM | TGI [4]: > 100 µM | TGI [5]: > 100 µM | TGI [6]: > 100 µM | TGI [7]: > 100 µM | TGI [8]: > 100 µM | TGI [9]: > 100 µM | TGI [10]: > 100 µM | TGI [11]: > 100 µM | TGI [12]: > 100 µM | TGI [13]: > 100 µM | TGI [14]: > 100 µM | TGI [15]: > 100 µM | TGI [16]: > 100 µM | TGI [17]: > 100 µM | TGI [18]: > 100 µM | TGI [19]: > 100 µM | TGI [20]: > 100 µM | TGI [21]: > 100 µM | TGI [22]: > 100 µM | TGI [23]: 88.6 µM | TGI [24]: > 100 µM | TGI [25]: > 100 µM | TGI [26]: > 100 µM | TGI [27]: > 100 µM | TGI [28]: > 100 µM | TGI [29]: > 100 µM | TGI [30]: > 100 µM | TGI [31]: > 100 µM | TGI [32]: > 100 µM | TGI [33]: > 100 µM | TGI [34]: > 100 µM | TGI [35]: > 100 µM | TGI [36]: > 100 µM | TGI [37]: > 100 µM | TGI [38]: > 100 µM | TGI [39]: > 100 µM | TGI [40]: > 100 µM | TGI [41]: > 100 µM | TGI [42]: > 100 µM | TGI [43]: > 100 µM | TGI [44]: > 100 µM | TGI [45]: > 100 µM | TGI [46]: > 100 µM | TGI [47]: > 100 µM | TGI [48]: > 100 µM | TGI [49]: > 100 µM | TGI [50]: > 100 µM | TGI [51]: > 100 µM | TGI [52]: > 100 µM | TGI [53]: > 100 µM | TGI [54]: > 100 µM | TGI [55]: > 100 µM | TGI [56]: > 100 µM | TGI [57]: > 100 µM

CN(C)c1ccc(/C=C(\C#N)c2nc(-c3cc4ccccc4oc3=O)cs2)cc1
TGI [1]: > 50 µM | TGI [58]: 16.8 µM | TGI [2]: > 50 µM | TGI [3]: > 50 µM | TGI [4]: > 50 µM | TGI [59]: 21.8 µM | TGI [5]: > 50 µM | TGI [6]: > 50 µM | TGI [7]: > 50 µM | TGI [8]: > 50 µM | TGI [9]: 38.6 µM | TGI [10]: > 50 µM | TGI [11]: > 50 µM | TGI [12]: 31.6 µM | TGI [13]: > 50 µM | TGI [14]: > 50 µM | TGI [15]: > 50 µM | TGI [16]: 15.6 µM | TGI [18]: > 50 µM | TGI [19]: > 50 µM | TGI [20]: > 50 µM | TGI [22]: 24.3 µM | TGI [23]: 8.16 µM | TGI [24]: > 50 µM | TGI [25]: > 50 µM | TGI [26]: > 50 µM | TGI [27]: > 50 µM | TGI [28]: > 50 µM | TGI [29]: > 50 µM | TGI [30]: 40.9 µM | TGI [31]: > 50 µM | TGI [32]: 25.1 µM | TGI [34]: > 50 µM | TGI [35]: > 50 µM | TGI [36]: > 50 µM | TGI [37]: > 50 µM | TGI [38]: > 50 µM | TGI [39]: 26.7 µM | TGI [40]: 44.5 µM | TGI [41]: 4.21 µM | TGI [42]: > 50 µM | TGI [43]: > 50 µM | TGI [44]: > 50 µM | TGI [45]: > 50 µM | TGI [46]: > 50 µM | TGI [47]: > 50 µM | TGI [48]: > 50 µM | TGI [49]: > 50 µM | TGI [50]: 21 µM | TGI [51]: > 50 µM | TGI [52]: > 50 µM | TGI [53]: > 50 µM | TGI [54]: > 50 µM | TGI [55]: > 50 µM | TGI [56]: > 50 µM | TGI [57]: > 50 µM
